One compound from US20130245081A1, “Compositions and Methods for Treating Amyotrophic Lateral Sclerosis” (priority 2009, published 2013) can be followed below.

Each structure is given as a SMILES string. Where two headings read alike, the source gives them in different places.

Series [1] concerns dopamine receptor.
The test system of series [2] is healthy adult subjects. Here is the method:
In both studies, safety was assessed by periodic measurement of vital signs, 12-lead ECGs, physical examinations, clinical laboratory parameters, and reports of adverse events. Baseline vital signs and changes from baseline were summarized with descriptive statistics by body position (supine or standing), dose level, and time point. Additionally, the number of subjects with substantial increases or decreases in blood pressure (>20 mmHg) and heart rate (>15 bpm) were tabulated by dose level and visit. The arithmetic mean of 3 readings of blood pressure and heart rate at each visit/position was used for the analysis. The shift from baseline for physical examination results was tabulated by body system, visit, and dose level. The overall ECG findings were summarized using a shift table comparing post-baseline visits to baseline. Laboratory parameters were summarized at each timepoint, including changes from baseline by dose level. In addition, abnormal values outside normal ranges were flagged. All safety data were summarized with descriptive statistics by dose group.
In the first study, subjects remained in the clinic for 72 hours after dosing, during which time they were monitored for safety and tolerability, and later returned to the clinic for a brief follow-up visit 7 days post-dose for clinical and laboratory assessments. In the second study, end-of-treatment evaluations were performed on Day 9, approximately 48 hours after the final dose, and subjects were discharged from the clinic for an outpatient visit on Day 10 and a follow-up visit on Day 14.

Series [3] deals with patients with ALS.
Where [4] appears, read: combined active treatment groups, Part 1.

`CCCN[C@@H]1CCc2nc(N)sc2C1` [dexpramipexole, (6R)-2-amino-4,5,6,7-tetrahydro-6-(propylamino)benzothiazole]: in series [1], the “functional affinity difference between pramipexole and dexpramipexole” value was 10,000-20,000 fold. Moreover, in series [2] (either study), the “drug effect on vital signs, physical examinations, ECG, hematology and urinalysis” value is given as “no evidence”; the “serious adverse events or adverse events that led to early discontinuation” value is “No serious adverse events”. In series [2] (first study), this compound returned a subjects reporting dizziness of 3 subjects. In series [2] (second study), this compound displayed a subjects reporting headache of 5 subjects. Besides, in series [2] (single doses up to 300 mg, multiple doses up to 150 mg twice daily for 4½ days), the safety and tolerability entry was “safe and well tolerated”. In addition, the “Total AE's” value in series [3] (50 mg, 12 weeks) is 19 (82.6%) N (%). Besides, in series [3] (50 mg, Part 1), the “percentage of subjects reporting AEs” value worked out at 83%, the “subjects reporting SAEs” value is on record as 2 subjects and the “subjects with at least 1 AE possibly or probably treatment-related” value is given as 17%. The “Total AE's” value in series [3] (150 mg, 12 weeks) is 25 (96.2%) N (%). Moreover, the “Total AE's” value in series [3] (300 mg, 12 weeks) is reported as 23 (88.5%) N (%). In series [3] (300 mg, Part 1), the “percentage of subjects reporting AEs” value was found to be 89%, the “subjects discontinued due to adverse event (nausea)” value amounted to 1 subjects, the “subjects reporting SAEs” value is 3 subjects and the “subjects with at least 1 AE possibly or probably treatment-related” value turned out to be 27%. Also, in series [3] (50, 150, 300 mg, 12 weeks), the “deaths during Part 1” value is given as “No deaths”. Moreover, in series [3] (setting [4]), the AE fall is listed as 32%, the AE headache is listed as 13%, the AE muscular weakness was 24% and the AE nausea turned out to be 11%. For the same compound, in series [3] (setting [4]), the “AE post lumber puncture syndrome” value was 19%. For the same compound, the safety and tolerability result in series [3] (total daily doses of 50, 150, 300 mg, 12 weeks) is “safe and well-tolerated”.
